Assay results published in publication PMC8512812, “Clerodane Diterpenoids from an Edible Plant Justicia insularis: Discovery, Cytotoxicity, and Apoptosis Induction in Human Ovarian Cancer Cells” (Molecules, 2021).
Read-outs that look alike come from different tables or passages of the source.

What was measured:
[1] = system: caspase 9 in OVCAR-8 cells; assay: Caspase-Glo 9 activity assay; assay type: cell-based, human
Procedure: (§1) Caspase 3/7 activities was measured using assay kits caspase-Glo 3/7 (Promega Corp., Madison, WI, USA) on a 96-well microplate. Briefly, the cells (OVCAR-4 and OVCAR-8) were seeded in 96 well plates at a cell density of 5000 cells/well in 80 μL growth media and exposed to 10, 20 and/or 30 μM of the natural compounds after 24 h incubation. After 48 h exposure to compound treatments, 25 μL of Caspase 3/7 Glo-reagent was added, and the cells were incubated in the dark at room temperature for 30 min on a gentle rocker. The luminescence was measured at […] by a BioTEK Synergy microplate reader (USA). A similar procedure was followed for caspase 8 and caspase 9 activity.

[2] = system: caspase 3/7 in OVCAR-4 cells; assay: Caspase-Glo 3/7 activity assay; assay type: cell-based, human; details: 10, 20 and/or 30 μM, 48 h, vs control, one-way ANOVA
Procedure: as §1

[3] = system: caspase 3/7 in OVCAR-8 cells; assay: Caspase-Glo 3/7 activity assay; assay type: cell-based, human; details: 10, 20 and/or 30 μM, 48 h, vs control, one-way ANOVA
Procedure: as §1

[4] = system: HOE cells (normal human ovarian surface epithelial); assay: Sulforhodamine B (SRB) cell growth inhibitory assay; assay type: cell-based; details: for IC50: SRB, 72 h; for cytotoxic activity against HOE cells: compared with OVCAR-4 and OVCAR-8
Procedure: (§2) The human ovarian cancer cell lines and normal human ovarian surface epithelial (HOE) cells were used in this study. Ovarian cancer cell lines (OVCAR-4 and OVCAR-8) were products of American tissue culture collection (ATCC). The HOE cells were purchased from Applied Biological Materials (ABM) Inc. (Vancouver, BC, Canada). The Rosewell Park Memorial Institute (RPMI 1640, Lonza) medium was used in the culturing of OVCAR-4, OVCAR-8, and HOE cells. The medium was supplemented with 2 mM glutamine, 10% foetal bovine serum (FBS), and 50 µg/mL penicillin streptomycin. These cells were incubated in a standard humidified incubator) at 37 °C, 5% carbon dioxide (CO2) conditions.
(§3) Sulforhodamine B (SRB) assay was used to determine the inhibition of cell proliferation by the studied compounds and plant extracts. Plant extracts/fractions (100 mg/mL) and pure compounds (20 mM) were prepared in DMSO. The 0.2% DMSO in growth media was added to the cells as vehicle-treated cells (negative control) while carboplatin was used as positive control. In the SRB assay, OVCAR-4, OVCAR-8, and HOE cells were seeded in 80 µL growth medium per each well in 96 well plates. OVCAR-4 and HOE were seeded at a density of 5000 cells per well while OVCAR-8 was seeded at a density of 2000 cells per well. The seeded plates were incubated for 24 h, after which 20 μL of plant extracts and natural compounds 1000 µg/mL and 200 µM (and their serial two-fold dilutions), respectively, were added at the indicated concentrations. The cell cultures were incubated at 37 °C under 5% CO2 for 72 h in a humidified atmosphere.
(§4) After 72 h, the medium was decanted, and the cells fixed with 0.1 mL of 10% TCA on ice for 30 min before drying. The cells were stained with 0.4% SRB, washed with 1% acetic acid three times and dried. Then, 0.1 mL of Tris-base (10 mM) was added to the plates to solubilise the protein-bound SRB dye. The absorbance at 570 nm was measured using a spectroscopic plate reader (Multi-mode microplate reader BioTEK Synergy 2, Winooski, VT, USA). The data were analysed by non-linear regression to fit a 4-parameter sigmoidal dose–response curve to determine IC50 values using GraphPad PRISM 6.0 software, Inc. (San Diego, CA, USA).
(§5) The IC50s were obtained from at least three repeated experiments. The mean IC50 was calculated, and the standard error of mean (SEM) was determined. Furthermore, a one way analysis of variance (ANOVA) and student t test were used to test if the difference in the mean of control and treatments and mean of treatment at different concentration were significant. A post hoc Dunnett test was used to determine which of the treatments was significant to the control while a Tukey test was used to determine which of the concentrations of a particular treatment were significant using GraphPad prism 6.

[5] = system: OVCAR-4 cells; assay: as above; assay type: cell-based, human
Procedure: as §2, §3, §4, §5

[6] = system: OVCAR-8 cells; assay: as above; assay type: cell-based, human; details: for SI against OVCAR-8: ratio of IC50 against HOE cells to IC50 against OVCAR-8
Procedure: as §2, §3, §4, §5

[7] = system: OVCAR-4 and OVCAR-8 cells; assay: SRB cell growth assay, result stated jointly for both cancer lines; assay type: cell-based, human; details: span over the two cell lines, read-out: IC50 against OVCAR-4 and OVCAR-8 cells
Procedure: as §2, §3, §4, §5

[8] = system: caspase 8 in OVCAR-8 cells; assay: Caspase-Glo 8 activity assay; assay type: cell-based, human
Procedure: as §1

[9] = Thermal stability (GC-MS conditions; heating followed by HPLC); assay type: physicochemical
Procedure: Briefly, 1.0–2.0 mg of the bioactive fractions and isolated compounds of J. insularis were dissolved in 200 μL of ethyl acetate and sonicated at <40 °C for 5 min. 1–2 μL of the solution was subsequently injected into gas chromatography mass spectrometry (GC-MS) system consisting of an Agilent 7890 coupled to Agilent MS model 5975C MSD (Agilent Technologies, Cold Spring, NY, USA). The gas chromatography started at 60 °C for 2 min and increased to 300 °C at the rate of 10 °C/min, which was held at 300 °C for 4 min at a constant helium pressure (10 psi). The mass spectra data were acquired in the scan mode in m/z range 40–1000.
The molecular formula of 1 was determined as C20H30O3 based on the observed molar mass of compound 1 (found, 318.2123 Da) by LC-HR-MS (Figure S4). […] The other observed compounds, 1a and 1b (Figure S5), were determined to be the thermal degradation products of compound 1 due to the presence of a γ–hydroxy unsaturated 5-membered lactone moiety (Figure 1) under high temperature conditions (60 °C–300 °C) for 30 min of GC-MS. […] Furthermore, the percentage of compound 1 in organic extracts was determined to be 34%. Thus, the composition of compound 1 in the plant material is 0.7% (dry weight), a very abundant secondary metabolite in the leave of J. insularis.

[10] = system: OVCAR-8 cells; assay: Annexin V-FITC / propidium iodide flow cytometry; assay type: cell-based, human; details: 5, 10, and 20 µM, 48 h treatment
Procedure: The in vitro method of fluorescence-activated cell sorting (FACS) by Annexin V and propidium iodide (PI) staining was used to detect the change of cell population as reported. OVCAR-8 cells were seeded in 12 well plates at a density of 2 × 10^5 cells per well in 1 mL of growth media and incubated for 24 h before treatment with the tested compound and positive control. After treatment for 48 h, media were decanted into 15 mL tubes, and cell pellets were collected into the same tubes by trypsinisation, the cells were centrifuged at 150× g for 3 min and re-suspended into 1 mL growth media, which was transferred into sterile 2 mL Eppendorf tube, centrifuged at 300× g for 5 min at 4 °C. The media were aspirated, and the pellet was washed in cold PBS. The cells were centrifuged under the same conditions and the supernatant aspirated. Cells were washed in 500 µL annexin-V binding buffer and centrifuged at 300× g for 10 min, annexin-V binding buffer was aspirated, and the cell pellet was treated with 10 µL of annexin V-FITC in 100 µL of binding buffer. The cells were thoroughly mixed and incubated in the dark at room temperature for 15 min. After incubation, cells were washed in binding buffer and centrifuged at 300× g for 10 min. The buffer was aspirated, and cells were suspended in 500 µL binding buffer and subsequently 5 µL of PI was added for flow cytometry analysis.

[11] = system: Hela cells; design: method as in PMID 32213364; details: from the leaves of Casearia kurzii; read-out: IC50 against Hela cells; cited from earlier work
[12] = Homo sapiens, mean ± SEM, read-out: growth inhibitory activity, IC50, HOE
[13] = Homo sapiens, same IC50 given in μg/mL, read-out: growth inhibitory activity, IC50, HOE, in parentheses (converted)
[14] = Homo sapiens, OVCAR-4, 72 h, mean ± SEM, read-out: growth inhibitory activity, IC50, OVCAR-4
[15] = Homo sapiens, OVCAR-4, 72 h, same IC50 given in μg/mL, read-out: growth inhibitory activity, IC50, OVCAR-4, in parentheses (converted)
[16] = Homo sapiens, OVCAR-8, SRB, 72 h, mean ± SEM, read-out: growth inhibitory activity, IC50, OVCAR-8
[17] = Homo sapiens, OVCAR-8, SRB, 72 h, same IC50 given in μg/mL, read-out: growth inhibitory activity, IC50, OVCAR-8, in parentheses (converted)

Row | Compound | caspase 3/7 activities [2] | caspase 3/7 activities [3] | IC50 [4, 12] | IC50 [4, 13] | cytotoxic activity against HOE cells [4] | IC50 [5, 14] | IC50 [5, 15] | IC50 [6, 16] | IC50 [6, 17] | SI against OVCAR-8 [6] | IC50 ([7]; Homo sapiens) | IC50 [7] | further results
1 | CC1=CCC[C@@H]2[C@@](C)(CCC3=CC(=O)OC3O)[C@H](C)CC[C@@]12C (mixture of isomers) [Compound 1, 16(α/β)-hydroxy-cleroda-3,13(14)Z-dien-15,16-olide] | significantly increased | significantly increased | 12.1 ± 0.1 µM | 3.9 µg/mL | less cytotoxic activity | 5.7 ± 0.3 µM | 1.8 µg/mL | 4.4 ± 0.2 µM | 1.4 µg/mL | 3 | 4 to 6 µM | < 6 µM | caspase 9 activity [1]: increased; IC50 ([6]; Homo sapiens, OVCAR-8, Figure S1 scheme, read-out: IC50 in OVCAR-8 (Figure S1)): 1.42 µg/mL; caspase 8 activity [8]: increased; thermal stability, HPLC after heating ([9]; 200 °C for 0.5 h followed by HPLC analysis): formation of new products; thermal stability ([9]; at a high temperature): thermally unstable; percentage of early and late apoptosis [10]: concentration-dependent and significant increase
2 | CC1=CCC[C@@H]2[C@@](C)(CC/C(C=O)=C\C(=O)O)[C@H](C)CC[C@@]12C [Compound 2, 16-oxo-cleroda-3,13(14)E-dien-15-oic acid] | significantly increased | significantly increased | 22.8 ± 0.7 µM | 7.3 µg/mL | less cytotoxic activity | 16.6 ± 2.8 µM | 5.3 µg/mL | 11.8 ± 0.5 µM | 3.8 µg/mL | 2 | 12 to 17 µM | – | –
3 | Kurzipene B | – | – | – | – | – | – | – | – | – | – | – | – | IC50 [11]: 5.3 µM
4 | N.N.O=C([O-])C1(C(=O)[O-])CCC1.[Pt+2] [Carboplatin, carboplatin, reference compound] | – | – | – | – | – | – | – | – | – | 1.6 | – | 8 to 18 µM | IC50 ([4]; mean ± SEM, read-out: growth inhibitory activity, IC50, HOE): 13 ± 3.7 µM; IC50 ([5]; 72 h, mean ± SEM, read-out: growth inhibitory activity, IC50, OVCAR-4): 17.6 ± 4.6 µM; IC50 ([6]; SRB, 72 h, mean ± SEM, read-out: growth inhibitory activity, IC50, OVCAR-8): 8.2 ± 2.2 µM
